What was measured:
[1] = target: Mitogen-activated protein kinase kinase kinase kinase 5 (Homo sapiens) (UniProt Q9Y4K4); conditions: Compound concentration 1000.0 nM
[2] = target: Serine/threonine-protein kinase 36 (Homo sapiens) (UniProt Q9NRP7); conditions: Compound concentration 1000.0 nM
[3] = target: Histamine H2 receptor (Homo sapiens) (UniProt P25021); assay: H2 (h) Eurofins-Cerep binding assay; set-up: ligand concentration 0.075 nM; conditions: filed as antagonist, Compound concentration 10.0 uM
[4] = target: Adenosine receptor A3 (Homo sapiens) (UniProt P0DMS8); assay: A3 (h) Eurofins-Cerep binding assay; set-up: ligand concentration 0.15 nM; conditions: filed as agonist, Compound concentration 10.0 uM
[5] = target: Cyclin-dependent kinase 5 (Homo sapiens) (UniProt Q00535); conditions: Compound concentration 1000.0 nM
Chain of Cyclin-dependent kinase 5 (Homo sapiens) (Q00535 whole entry, looked up): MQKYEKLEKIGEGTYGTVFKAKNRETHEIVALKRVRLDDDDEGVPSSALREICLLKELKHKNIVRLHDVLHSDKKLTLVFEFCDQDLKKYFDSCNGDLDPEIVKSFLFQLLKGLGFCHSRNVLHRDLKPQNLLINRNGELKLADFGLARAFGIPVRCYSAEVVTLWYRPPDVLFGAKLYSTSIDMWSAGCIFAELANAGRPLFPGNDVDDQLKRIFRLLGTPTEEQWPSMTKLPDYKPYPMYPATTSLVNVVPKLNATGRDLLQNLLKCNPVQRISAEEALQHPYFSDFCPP

[6] = target: Serine/threonine-protein kinase ULK3 (Homo sapiens) (UniProt Q6PHR2); conditions: Compound concentration 1000.0 nM
[7] = target: Fibroblast growth factor receptor 1 (Homo sapiens) (UniProt P11362); conditions: Compound concentration 1000.0 nM
[8] = target: Serine/threonine-protein kinase N1 (Homo sapiens) (UniProt Q16512); conditions: Compound concentration 1000.0 nM
Chain of Serine/threonine-protein kinase N1 (Homo sapiens) (Q16512 2-942 limits assumed): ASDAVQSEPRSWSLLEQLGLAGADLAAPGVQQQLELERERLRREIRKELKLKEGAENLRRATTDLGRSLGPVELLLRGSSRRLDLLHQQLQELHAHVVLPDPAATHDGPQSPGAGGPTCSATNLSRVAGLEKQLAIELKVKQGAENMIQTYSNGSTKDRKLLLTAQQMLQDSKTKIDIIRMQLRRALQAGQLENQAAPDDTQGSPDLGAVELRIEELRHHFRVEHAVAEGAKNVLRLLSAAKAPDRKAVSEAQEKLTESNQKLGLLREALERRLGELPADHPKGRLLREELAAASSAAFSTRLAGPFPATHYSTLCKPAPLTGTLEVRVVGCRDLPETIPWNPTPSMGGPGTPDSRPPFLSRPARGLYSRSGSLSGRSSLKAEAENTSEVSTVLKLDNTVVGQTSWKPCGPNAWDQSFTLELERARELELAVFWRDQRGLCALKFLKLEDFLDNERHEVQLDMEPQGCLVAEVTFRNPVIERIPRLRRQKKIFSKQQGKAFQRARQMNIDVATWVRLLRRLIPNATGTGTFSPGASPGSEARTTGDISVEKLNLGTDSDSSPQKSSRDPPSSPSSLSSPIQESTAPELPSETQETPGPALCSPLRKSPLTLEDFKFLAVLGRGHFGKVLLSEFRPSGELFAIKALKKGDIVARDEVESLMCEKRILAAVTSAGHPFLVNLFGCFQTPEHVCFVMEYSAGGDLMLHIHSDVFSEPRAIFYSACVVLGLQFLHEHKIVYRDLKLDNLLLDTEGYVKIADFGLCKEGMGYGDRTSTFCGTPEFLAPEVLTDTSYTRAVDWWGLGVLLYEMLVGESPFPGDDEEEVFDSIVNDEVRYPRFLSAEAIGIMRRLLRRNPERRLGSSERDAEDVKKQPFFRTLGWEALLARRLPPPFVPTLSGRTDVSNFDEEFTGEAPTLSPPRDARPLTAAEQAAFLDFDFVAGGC

[9] = test system: Epidermal growth factor receptor (Homo sapiens), P00533 [G719C]; conditions: Compound concentration 1000.0 nM
[10] = test system: Epidermal growth factor receptor (Homo sapiens), P00533 [L858R]; conditions: Compound concentration 1000.0 nM
[11] = target: Serine/threonine-protein kinase PLK2 (Homo sapiens) (UniProt Q9NYY3); conditions: Compound concentration 1000.0 nM
[12] = test system: Tyrosine-protein kinase ABL1 (Homo sapiens), P00519 [H396P]; conditions: Compound concentration 1000.0 nM
[13] = target: Serine/threonine-protein kinase Chk2 (Homo sapiens) (UniProt O96017); conditions: Compound concentration 1000.0 nM
Chain of Serine/threonine-protein kinase Chk2 (Homo sapiens) (O96017 whole entry): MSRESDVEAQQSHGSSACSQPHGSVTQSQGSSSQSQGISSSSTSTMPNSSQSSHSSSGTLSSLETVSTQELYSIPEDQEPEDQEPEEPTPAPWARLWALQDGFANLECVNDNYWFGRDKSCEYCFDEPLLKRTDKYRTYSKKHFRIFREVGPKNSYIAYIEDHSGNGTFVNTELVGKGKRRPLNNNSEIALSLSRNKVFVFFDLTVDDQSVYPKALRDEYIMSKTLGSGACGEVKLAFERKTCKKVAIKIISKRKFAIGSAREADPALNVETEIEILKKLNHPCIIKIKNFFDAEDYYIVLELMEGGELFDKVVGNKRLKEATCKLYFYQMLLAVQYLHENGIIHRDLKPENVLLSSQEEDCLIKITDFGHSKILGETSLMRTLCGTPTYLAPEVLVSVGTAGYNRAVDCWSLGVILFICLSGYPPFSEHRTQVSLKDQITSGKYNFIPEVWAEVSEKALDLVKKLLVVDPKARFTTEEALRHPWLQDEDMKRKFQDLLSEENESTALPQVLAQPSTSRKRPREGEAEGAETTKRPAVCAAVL

[14] = test system: Receptor-type tyrosine-protein kinase FLT3 (Homo sapiens), P36888 [N841I]; conditions: Compound concentration 1000.0 nM
[15] = target: Proto-oncogene tyrosine-protein kinase ROS (Homo sapiens) (UniProt P08922); conditions: Compound concentration 1000.0 nM
[16] = test system: Receptor-type tyrosine-protein kinase FLT3 (Homo sapiens), P36888 [D835Y]; conditions: Compound concentration 1000.0 nM
[17] = target: RAC-beta serine/threonine-protein kinase (Homo sapiens) (UniProt P31751); conditions: Compound concentration 1000.0 nM
[18] = target: Serine/threonine-protein kinase TBK1 (Homo sapiens) (UniProt Q9UHD2); conditions: Compound concentration 1000.0 nM
Chain of Serine/threonine-protein kinase TBK1 (Homo sapiens) (Q9UHD2 whole entry): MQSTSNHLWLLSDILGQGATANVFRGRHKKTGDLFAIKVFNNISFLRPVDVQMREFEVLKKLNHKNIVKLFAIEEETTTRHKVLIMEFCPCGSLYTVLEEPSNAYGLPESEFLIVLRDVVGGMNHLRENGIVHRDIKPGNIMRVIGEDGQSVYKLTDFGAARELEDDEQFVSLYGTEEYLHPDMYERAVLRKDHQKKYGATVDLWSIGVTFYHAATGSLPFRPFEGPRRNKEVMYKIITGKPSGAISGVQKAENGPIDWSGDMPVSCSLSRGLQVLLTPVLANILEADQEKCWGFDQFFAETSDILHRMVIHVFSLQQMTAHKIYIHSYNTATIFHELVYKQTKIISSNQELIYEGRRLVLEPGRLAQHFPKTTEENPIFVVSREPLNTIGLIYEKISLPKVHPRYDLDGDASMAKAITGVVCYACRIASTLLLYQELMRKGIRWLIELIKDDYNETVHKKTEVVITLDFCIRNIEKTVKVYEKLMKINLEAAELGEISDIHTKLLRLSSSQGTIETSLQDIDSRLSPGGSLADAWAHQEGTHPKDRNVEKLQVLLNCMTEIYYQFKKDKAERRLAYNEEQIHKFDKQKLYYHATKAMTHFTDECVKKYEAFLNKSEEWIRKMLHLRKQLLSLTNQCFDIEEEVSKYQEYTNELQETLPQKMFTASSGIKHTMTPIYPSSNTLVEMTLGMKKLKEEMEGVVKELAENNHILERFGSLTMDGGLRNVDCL

[19] = target: Leucine-rich repeat serine/threonine-protein kinase 2 (Homo sapiens) (UniProt Q5S007); conditions: Compound concentration 1000.0 nM
[20] = target: Mitogen-activated protein kinase 15 (Homo sapiens) (UniProt Q8TD08); conditions: Compound concentration 1000.0 nM
[21] = test system: Tyrosine-protein kinase ABL1 (Homo sapiens), P00519 [T315I]; conditions: Compound concentration 1000.0 nM
[22] = target: Serine/threonine-protein kinase 38 (Homo sapiens) (UniProt Q15208); conditions: Compound concentration 1000.0 nM
Chain of Serine/threonine-protein kinase 38 (Homo sapiens) (Q15208 2-465 limits assumed): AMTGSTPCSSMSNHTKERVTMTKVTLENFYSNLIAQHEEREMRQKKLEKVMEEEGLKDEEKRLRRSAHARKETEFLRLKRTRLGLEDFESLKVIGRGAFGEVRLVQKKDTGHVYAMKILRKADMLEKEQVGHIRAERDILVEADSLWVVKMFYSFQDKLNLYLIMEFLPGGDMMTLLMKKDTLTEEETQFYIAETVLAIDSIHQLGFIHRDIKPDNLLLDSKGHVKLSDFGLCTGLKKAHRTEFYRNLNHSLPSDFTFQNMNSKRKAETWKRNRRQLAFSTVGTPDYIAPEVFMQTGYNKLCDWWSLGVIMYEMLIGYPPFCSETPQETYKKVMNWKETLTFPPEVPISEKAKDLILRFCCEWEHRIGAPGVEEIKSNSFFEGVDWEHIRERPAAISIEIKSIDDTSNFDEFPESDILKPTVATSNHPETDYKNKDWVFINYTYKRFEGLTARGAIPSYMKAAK

[23] = target: Casein kinase II subunit alpha (Homo sapiens) (UniProt P68400); conditions: Compound concentration 1000.0 nM
Chain of Casein kinase II subunit alpha (Homo sapiens) (P68400 whole entry, looked up): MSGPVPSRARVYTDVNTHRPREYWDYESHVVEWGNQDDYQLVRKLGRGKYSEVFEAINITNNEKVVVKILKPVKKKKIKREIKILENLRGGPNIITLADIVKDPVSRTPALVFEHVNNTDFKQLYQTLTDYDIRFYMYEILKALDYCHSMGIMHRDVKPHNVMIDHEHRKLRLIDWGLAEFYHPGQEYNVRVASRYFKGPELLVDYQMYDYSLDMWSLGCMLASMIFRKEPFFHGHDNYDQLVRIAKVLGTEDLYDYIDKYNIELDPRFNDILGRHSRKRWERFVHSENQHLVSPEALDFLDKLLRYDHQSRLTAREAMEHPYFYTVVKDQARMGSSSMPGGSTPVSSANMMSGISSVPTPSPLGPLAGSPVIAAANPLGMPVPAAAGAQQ

[24] = target: MAP/microtubule affinity-regulating kinase 4 (Homo sapiens) (UniProt Q96L34); conditions: Compound concentration 1000.0 nM
[25] = target: Peripheral plasma membrane protein CASK (Homo sapiens) (UniProt O14936); conditions: Compound concentration 1000.0 nM
[26] = test system: Tyrosine-protein kinase ABL1 (Homo sapiens), P00519 [F317L]; conditions: Compound concentration 1000.0 nM
[27] = target: Phosphatidylinositol 4,5-bisphosphate 3-kinase catalytic subunit beta isoform (Homo sapiens) (UniProt P42338); conditions: Compound concentration 1000.0 nM
[28] = target: Calcium/calmodulin-dependent protein kinase type II subunit gamma (Homo sapiens) (UniProt Q13555); conditions: Compound concentration 1000.0 nM
[29] = target: MAO-A (amine oxidase [flavin-containing] A) (Rattus norvegicus, UniProt P21396); assay: MAO-A Eurofins-Cerep binding assay; set-up: incubation time 60 min, incubation temperature 37°C, ligand concentration 10 nM; conditions: rat cerebral cortex (source of protein), probe [3H]Ro 41-1049 (10 nM), compound concentration 10 uM, read-out: % Inhibition of Control Specific Binding (Mean n=2)
[30] = target: Glutamate NMDA receptor (Rattus norvegicus) (UniProt P35439+Q00959+Q00960+Q00961+Q62645+Q8VHN2+Q9R1M7); assay: NMDA Eurofins-Cerep binding assay; format: protein-complex assay; set-up: ligand concentration 5 nM; conditions: filed as antagonist, Compound concentration 10.0 uM
[31] = target: Phosphatidylinositol 4-phosphate 5-kinase type-1 gamma (Homo sapiens) (UniProt O60331); conditions: Compound concentration 1000.0 nM
[32] = target: Serine/threonine-protein kinase WNK1 (Homo sapiens) (UniProt Q9H4A3); conditions: Compound concentration 1000.0 nM
[33] = target: Serine/threonine-protein kinase SIK2 (Homo sapiens) (UniProt Q9H0K1); conditions: Compound concentration 1000.0 nM
[34] = target: Serine/threonine-protein kinase 17A (Homo sapiens) (UniProt Q9UEE5); conditions: Compound concentration 1000.0 nM
Chain of Serine/threonine-protein kinase 17A (Homo sapiens) (Q9UEE5 whole entry): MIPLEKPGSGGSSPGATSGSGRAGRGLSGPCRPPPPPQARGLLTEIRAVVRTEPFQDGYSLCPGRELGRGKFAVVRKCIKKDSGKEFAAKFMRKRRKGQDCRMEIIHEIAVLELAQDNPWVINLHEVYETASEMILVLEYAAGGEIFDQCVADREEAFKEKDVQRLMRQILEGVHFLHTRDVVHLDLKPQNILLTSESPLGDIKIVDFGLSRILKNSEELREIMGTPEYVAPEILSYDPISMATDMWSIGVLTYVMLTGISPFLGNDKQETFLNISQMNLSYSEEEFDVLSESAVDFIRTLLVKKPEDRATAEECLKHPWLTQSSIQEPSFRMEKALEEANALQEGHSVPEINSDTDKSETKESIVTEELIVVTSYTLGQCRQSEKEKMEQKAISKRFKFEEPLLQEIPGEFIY

[35] = target: Dual specificity mitogen-activated protein kinase kinase 6 (Homo sapiens) (UniProt P52564); conditions: Compound concentration 1000.0 nM
[36] = target: Myosin light chain kinase (Homo sapiens) (UniProt Q32MK0); conditions: Compound concentration 1000.0 nM
[37] = target: Serine/threonine-protein kinase MRCK alpha (Homo sapiens) (UniProt Q5VT25); conditions: Compound concentration 1000.0 nM
[38] = target: Homeodomain-interacting protein kinase 4 (Homo sapiens) (UniProt Q8NE63); conditions: Compound concentration 1000.0 nM
[39] = target: Aurora kinase B (Homo sapiens) (UniProt Q96GD4); conditions: Compound concentration 1000.0 nM
Chain of Aurora kinase B (Homo sapiens) (Q96GD4 whole entry): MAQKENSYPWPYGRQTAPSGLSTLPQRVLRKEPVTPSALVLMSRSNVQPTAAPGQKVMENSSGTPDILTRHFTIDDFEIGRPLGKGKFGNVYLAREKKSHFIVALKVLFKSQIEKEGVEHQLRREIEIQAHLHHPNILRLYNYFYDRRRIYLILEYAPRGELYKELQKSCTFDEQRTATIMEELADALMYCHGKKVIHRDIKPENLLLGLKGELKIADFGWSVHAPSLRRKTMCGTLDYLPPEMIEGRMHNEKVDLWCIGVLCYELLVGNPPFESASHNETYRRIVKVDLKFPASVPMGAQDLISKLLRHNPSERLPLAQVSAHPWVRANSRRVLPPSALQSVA

[40] = target: Glycogen synthase kinase-3 beta (Homo sapiens) (UniProt P49841); conditions: Compound concentration 1000.0 nM
Chain of Glycogen synthase kinase-3 beta (Homo sapiens) (P49841 whole entry, looked up): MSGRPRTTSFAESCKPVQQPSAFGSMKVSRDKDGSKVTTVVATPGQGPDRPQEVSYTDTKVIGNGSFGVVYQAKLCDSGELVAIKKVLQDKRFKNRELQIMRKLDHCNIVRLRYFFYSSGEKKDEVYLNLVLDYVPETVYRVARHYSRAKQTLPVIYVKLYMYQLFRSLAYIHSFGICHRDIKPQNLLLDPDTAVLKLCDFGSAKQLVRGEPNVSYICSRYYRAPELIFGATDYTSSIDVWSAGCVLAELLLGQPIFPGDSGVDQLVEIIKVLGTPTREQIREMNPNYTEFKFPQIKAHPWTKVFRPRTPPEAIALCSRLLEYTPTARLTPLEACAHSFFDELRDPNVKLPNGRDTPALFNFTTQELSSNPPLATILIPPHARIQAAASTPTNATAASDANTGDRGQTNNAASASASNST

[41] = target: Dual specificity testis-specific protein kinase 1 (Homo sapiens) (UniProt Q15569); conditions: Compound concentration 1000.0 nM
[42] = target: Cyclin-dependent kinase-like 5 (Homo sapiens) (UniProt O76039); conditions: Compound concentration 1000.0 nM
[43] = target: Ephrin type-B receptor 3 (Homo sapiens) (UniProt P54753); conditions: Compound concentration 1000.0 nM
[44] = target: Casein kinase I isoform alpha (Homo sapiens) (UniProt P48729); conditions: Compound concentration 1000.0 nM
Chain of Casein kinase I isoform alpha (Homo sapiens) (P48729 2-337 limits assumed): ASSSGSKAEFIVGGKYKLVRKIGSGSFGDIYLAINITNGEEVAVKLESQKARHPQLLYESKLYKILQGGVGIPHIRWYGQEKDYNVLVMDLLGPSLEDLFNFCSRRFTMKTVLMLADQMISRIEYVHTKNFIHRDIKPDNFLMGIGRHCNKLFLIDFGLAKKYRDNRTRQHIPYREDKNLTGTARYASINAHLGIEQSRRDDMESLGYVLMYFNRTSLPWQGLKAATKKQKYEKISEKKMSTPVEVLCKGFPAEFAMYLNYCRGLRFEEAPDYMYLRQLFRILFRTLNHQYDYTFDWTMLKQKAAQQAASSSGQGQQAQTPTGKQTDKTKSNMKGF

CCCOc1ccc([C@H]2[C@H](C(=O)O)[C@@H](c3ccc4c(c3)OCO4)CN2CC(=O)Nc2c(CC)cccc2CC)cc1 [A-192621]
residual activity [1]: 93%
residual activity [2]: 98%
% Inhibition of Control Specific Binding (Mean n=2) [3]: -35.3%
% Inhibition of Control Specific Binding (Mean n=2) [4]: 47.4%
residual activity [5]: 100%
residual activity [6]: 72%
residual activity [7]: 100%
residual activity [8]: 87%
residual activity [9]: 95%
residual activity [10]: 100%
residual activity [11]: 79%
residual activity [12]: 63%
residual activity [13]: 88%
residual activity [14]: 93%
residual activity [15]: 98%
residual activity [16]: 100%
residual activity [17]: 100%
residual activity [18]: 91%
residual activity [19]: 79%
residual activity [20]: 100%
residual activity [21]: 58%
residual activity [22]: 77%
residual activity [23]: 69%
residual activity [24]: 97%
residual activity [25]: 77%
residual activity [26]: 62%
residual activity [27]: 73%
residual activity [28]: 95%
inhibition at 60 min, 10 µM [29]: 7.9%
% Inhibition of Control Specific Binding (Mean n=2) [30]: 3.3%
residual activity [31]: 100%
residual activity [32]: 89%
residual activity [33]: 89%
residual activity [34]: 92%
residual activity [35]: 100%
residual activity [36]: 86%
residual activity [37]: 94%
residual activity [38]: 70%
residual activity [39]: 72%
residual activity [40]: 73%
residual activity [41]: 89%
residual activity [42]: 85%
residual activity [43]: 97%
residual activity [44]: 72%

CCCOc1ccc([C@@H]2[C@@H](C(=O)O)[C@H](c3ccc4c(c3)OCO4)CN2CC(=O)Nc2c(CC)cccc2CC)cc1 [A-1806262]
residual activity [1]: 95%
residual activity [2]: 88%
% Inhibition of Control Specific Binding (Mean n=2) [3]: -18.1%
% Inhibition of Control Specific Binding (Mean n=2) [4]: 37.6%
residual activity [5]: 100%
residual activity [6]: 83%
residual activity [7]: 100%
residual activity [8]: 100%
residual activity [9]: 98%
residual activity [10]: 87%
residual activity [11]: 86%
residual activity [12]: 89%
residual activity [13]: 98%
residual activity [14]: 88%
residual activity [15]: 90%
residual activity [16]: 100%
residual activity [17]: 100%
residual activity [18]: 100%
residual activity [19]: 84%
residual activity [20]: 100%
residual activity [21]: 83%
residual activity [22]: 83%
residual activity [23]: 100%
residual activity [24]: 100%
residual activity [25]: 89%
residual activity [26]: 82%
residual activity [27]: 92%
residual activity [28]: 88%
inhibition at 60 min, 10 µM [29]: 9.9%
% Inhibition of Control Specific Binding (Mean n=2) [30]: 6.6%
residual activity [31]: 100%
residual activity [32]: 91%
residual activity [33]: 96%
residual activity [34]: 92%
residual activity [35]: 100%
residual activity [36]: 87%
residual activity [37]: 90%
residual activity [38]: 65%
residual activity [39]: 77%
residual activity [40]: 100%
residual activity [41]: 100%
residual activity [42]: 83%
residual activity [43]: 96%
residual activity [44]: 73%

Source: ChEMBL document CHEMBL4507261, “Data for DCP probe A-192621” (2021)
